Assay results as given in EP1257544B1, “PIPERAZINE AND PIPERIDINE DERIVATIVES FOR TREATMENT OR PREVENTION OF NEURONAL DAMAGE” (VERTEX PHARMACEUTICALS INCORPORATED, priority 2000, dated 2001).
pEC50: −log10 of the molar value. Counter-ions that a name gives are not always drawn.

These compounds were tested on Dissociated VM cells (assay: Neuroprotection Assay (NMDA-induced neuroexcitotoxic injury, high affinity 3H-dopamine uptake)). Details: embryonic day 15 rat ventral mesencephalic cultures, NMDA (100-400 µM) for 20 hours.
Format: cell-based, Sprague-Dawley rat
Excerpt: The neuroprotective activity of the compounds of this invention may be assayed using rat embryo ventral mesencephalic cells in culture which are subsequently exposed to the glutamate receptor agonist NMDA. This assay is described in detail in the example section.
The ventral mesencephalic region was dissected out of embryonic day 15 Sprague-Dawley rat embryos (Harlan), dissociated into single cell suspension by a combination of trypsinization and trituration (Costantini et al., Neurobiol Dis., pp. 97-106 (1998). Dissociated VM cells were plated into poly-L-ornithine-coated 96-well plates at a density of 85,000 cells/well in 100 uL of DMEM supplemented with 18% heat-inactivated horse serum, 0.24% glucose, 2 mM glutamine and 50 u/ml pernicillin/streptomycin and incubated in a 5% CO2 incubator. After one day in culture (DIV1), the medium was replaced with 100 µL of a defined medium (DMEM supplemented with 1x N2 cocktail (Gibco-BRL), 0.12% glucose, 2 mM glutamine, and 50 units/ml penicillin/streptomycin) containing DMSO or various concentrations of the compounds of this invention. On DIV5, neuroexcitotoxic injury was induced by the addition of various concentrations of the glutamate receptor agonist NMDA (100-400 µM). Cultures were incubated with the neurotoxin for 20 hours and the effects of neurophilin compounds were assessed using high affinity ^3H-dopamine uptake according to a procedure published by Park and Mytilineou [Brain Res., 599, pp. 83-97 (1992)].

Row | SMILES | pEC50
1 | CCN1CCCC[C@H]1C(=O)N1CCC(Cc2ccccc2)CC1 [Compound 26, 1-(4-Benzylpiperidin-1-yl)-1-((S)-1-ethylpiperidin-2-yl)methanone] | > 7.00
2 | CC(C)CN1CCC(C(=O)N2CCN(c3ccc(F)cc3)CC2)CC1 [Compound 264] | 6.30 to 7.00
3 | O=C([C@@H]1CCCN1Cc1ccc(F)cc1)N1CCC(Cc2ccccc2)CC1 [Compound 58, (4-Benzylpiperidin-1-yl)-[(2S)-1-(4-fluorobenzyl)-Pyrrolidin-2-yl]-methanone hydrochloride] | > 7.00
4 | CO[C@@H]1C[C@@H](C(=O)N2CCC(Cc3ccccc3)CC2)N(Cc2ccccc2)C1 [Compound 153, ((2S,4R)-1-Benzyl-4-methoxypyrrolidin-2-yl)-(4-benzylpiperdin-1-yl)-methanone] | < 6.30
5 | COc1ccc(CN2CCCC[C@H]2C(=O)N2CCN(C(c3ccccc3)c3ccccc3)CC2)cc1 [Compound 60, (4-Benzhydrylpiperazin-1-yl)-[(2S)-1-(4-methoxybenzyl)-piperidin-2-yl]-methanone dihydrochloride] | > 7.00
6 | O=C([C@@H]1C[C@@H](O)CN1Cc1ccccc1)N1CCC(Cc2ccccc2)CC1 [Compound 30, ((2S,4R) -1-Benzyl-4-hydroxypyrrolidin-2-yl)-(4-benzylpiperidin-1-yl)-methanone] | > 7.00
7 | CN1CCC(C(=O)N2CCN(C(c3ccc(F)cc3)c3ccc(F)cc3)CC2)CC1 [Compound 218] | 6.30 to 7.00
8 | CCN1CCCC[C@H]1C(=O)N1CCN(Cc2ccccn2)CC1 [Compound 38, ((2S)-1-Ethylpiperidin-2-yl)-(4-pyridin-2-ylmethylpiperazin-1-yl)-methanone trihydrochloride] | < 6.30
9 | CCN1CCCC[C@H]1C(=O)N1CCN(S(=O)(=O)c2ccccc2)CC1 [Compound 80, (4-Benzenesulfonylpiperazin-1-yl)-((2S)-1-ethylpiperidin-2-yl)-methanone hydrochloride] | < 6.30
10 | CCN1CCCC[C@H]1C(=O)N1CCC(=Cc2ccc(F)cc2)CC1 [Compound 84, ((2S)-1-Ethylpiperidin-2-yl)-[4-(4-fluorobenzylidene)piperidin-1-yl]-methanone hydrochloride] | > 7.00
11 | CCN1CCCC[C@H]1C(=O)N1CCC(Cc2ccccc2)C1 (stereo partly drawn) [Compound 35, (3-Benzylpyrrolidin-1-yl)-((2S)-1-ethylpiperidin-2-yl)-methanone] | 6.30 to 7.00
12 | CCN1CCCC[C@H]1CN1CCN(C(c2ccccc2)c2ccccc2)CC1 [Compound 100, 1-Benzhydryl-4-((2S)-1-ethylpiperidin-2-ylmethyl)-piperazine] | > 7.00
13 | C=CCN1CCC(C(=O)N2CCC(Cc3ccc(F)cc3)CC2)CC1 [Compound 274] | < 6.30
14 | O=C([C@@H]1CCCCN1CC1CC1)N1CCN(C(c2ccc(F)cc2)c2ccc(F)cc2)CC1 [Compound 63, {4-[Bis-(4-fluorophenyl)methyl]-piperazin-1-yl}-((2S)-1-cyclopropylmethyl-piperidin-2-yl)-methanone] | < 6.30
15 | CCN1CCCC[C@H]1C(=O)N1CCN(C(c2ccccc2)c2nc(OC)cc(OC)n2)CC1 (stereo partly shown) [Compound 43] | 6.30 to 7.00
16 | CCN1CCC(C(=O)N2CCC(Cc3ccc(F)cc3)CC2)CC1 [Compound 270] | 6.30 to 7.00
17 | CC(C)=CCN1CCC(C(=O)N2CCN(c3ccc(F)cc3)CC2)CC1 [Compound 260] | > 7.00

Row | SMILES | pEC50
18 | CCN1CCCC[C@H]1C(=O)N1CCN(Cc2ccccc2)CC1 [Compound 16, 1-(4-Benzylpiperazin-1-yl)-1-((S)-1-ethylpiperidin-2-yl)methanone] | 6.30 to 7.00
19 | O=C([C@@H]1CCCCN1Cc1ccccc1)N1CCN(C(c2ccc(F)cc2)c2ccc(F)cc2)CC1 [Compound 61, ((2S)-1-Benzylpiperidin-2-yl)-{4-[bis-(4-fluorophenyl)methyl]-piperazin-1-yl}-methanone] | 6.30 to 7.00
20 | O=C([C@@H]1CCCN1CCCc1ccccc1)N1CCC(Cc2ccccc2)CC1 [Compound 59, (4-Benzylpiperidin-1-yl)-[(2S)-1-(3-phenylpropyl) - pyrrolidin-2-yl]-methanone hydrochloride] | 6.30 to 7.00
21 | CCN1CCCC[C@H]1C(=O)N1CCN(CCc2ccccc2)CC1 [Compound 74, ((2S)-1-Ethylpiperidin-2-yl)-(4-phenethylpiperazin-1-yl)-methanone dihydrochloride] | < 6.30
22 | O=C([C@@H]1CCCN1Cc1ccccc1)N1CCC(Cc2ccc(F)cc2)CC1 [Compound 49, ((2S)-1-Benzylpyrrolidin-2-yl)-[4-(4-fluorobenzyl)-piperidin-1-yl]-methanone hydrochloride] | > 7.00
23 | CCN1CCCC[C@H]1C(=O)N1CCN(Cc2ccc(OC)cc2)CC1 [Compound 75, ((2S)-1-Ethylpiperidin-2-yl)-[4-(4-methoxybenzyl)-piperazin-1-yl]-methanone] | < 6.30
24 | CC(C)CN1CCCC[C@H]1C(=O)N1CCN(C(c2ccc(F)cc2)c2ccc(F)cc2)CC1 [Compound 66, [4-[Bis-(4-fluorophenyl)methyl]-piperazin-1-yl]-((2S)-1-(2-methylpropyl)-piperidin-2-yl)-methanone] | < 6.30
25 | CCN1CCCC[C@H]1C(=O)N1CCN(C(c2ccccc2)c2ccc(Cl)cc2)CC1 (stereo partly drawn) [Compound 41, {4-[(4-Chlorophenyl)phenylmethyl]-piperazin-1-yl}-((2S)-1-ethylpiperidin-2-yl)-methanone dihydrochloride] | > 7.00
26 | O=C([C@@H]1CCCN1Cc1ccccc1)N1CCC(=Cc2ccc(F)cc2)CC1 [Compound 85, ((2S)-1-Benzylpyrrolidin-2-yl)-[4-(4-fluorobenzylidene)piperidin-1-yl] methanone hydrochloride] | > 7.00
27 | O=C(C1CCN(CC2CC2)CC1)N1CCN(c2ccc(F)cc2)CC1 [Compound 262] | > 7.00
28 | CCN1CCCC[C@@H]1C(=O)N1CCN(C(c2ccc(F)cc2)c2ccc(F)cc2)CC1 [Compound 40, {4-[Bis-(4-fluorophenyl)methyl]-piperazin-1-yl}-((2R)-1-ethylpiperidin-2-yl)-methanone] | < 6.30
29 | O=C([C@@H]1CCCN1Cc1ccccc1)N1CCN(Cc2ccc(F)cc2)CC1 [Compound 87, ((2S)-1-Benzyl-pyrrolidin-2-yl)-[4-(4-fluoro-benzyl)-piperazin-1-yl] methanone] | < 6.30
30 | O=C(C1CCN(C/C=C/c2ccccc2)CC1)N1CCN(c2ccc(F)cc2)CC1 [Compound 266] | 6.30 to 7.00
31 | O=C(C1CC2CCN1CC2)N1CCC(Cc2ccc(F)cc2)CC1 (stereo not shown) [Compound 88, (1-Aza-bicyclo[2.2.2]oct-2-yl)-[4-(4-fluoro-benzyl)-piperidin-1-yl] methanone hydrochloride] | 6.30 to 7.00
32 | CCN1CCCC[C@H]1C(=O)N1CCN(C(c2ccc(F)cc2)c2ccc(F)cc2)CC1 [Compound 25, 1-{4-[1,1-Bis-(4-fluorophenyl)methyl]-piperazin-1-yl}-1-((S)-1-ethylpiperidin-2-yl)methanone] | 6.30 to 7.00
33 | O=C([C@@H]1CCCCN1Cc1ccc(F)cc1)N1CCN(C(c2ccccc2)c2ccccc2)CC1 [Compound 21, 1-[4-(1,1-Diphenyl-methyl)-piperazin-1-yl]-1-[(S)-1-(4-fluoro-benzyl)-piperidin-2-yl]-methanone] | > 7.00
34 | CCN1CCCC[C@H]1C(=O)N1CCN(Cc2cccnc2)CC1 [Compound 36, ((2S)-1-Ethylpiperidin-2-yl)-(4-pyridin-3-ylmethylpiperazin-1-yl)-methanone trihydrochloride] | < 6.30
